{
  "source": "patent US20130190370A1",
  "about": "“Novel Tetrahydronaphalene Antagonists to the Thromboxane A2 (TP) Receptor” (The Trustees of the University of Pennsylvania, priority 2010, published 2013)",
  "assay": "in vivo",
  "details": "female, B6C3HF1, mouse, in vivo, ip, 5 mg/kg",
  "method": "One-month old B6C3HF1 female mice were given intraperitoneal injections of compounds at 5 mg/kg. 1 hour after injection, mice were lethally anesthetized with an intraperitoneal injection of ketamine hydrochloride (1 mg/10 g) and xylazine (0.1 mg/10 g) and perfused intracardially with PBS in accordance with protocols approved by the University of Pennsylvania.\nBrain samples were homogenized in 10 mM ammonium acetate, pH 5.7 (1:2; w/v) using a handheld sonic homogenizer. Compound from 50 μL of brain homogenate or plasma was extracted with 200 μL acetonitrile, centrifuged, and the supernatant removed for LC/MS/MS analysis. Compounds were detected using multiple reaction monitoring (MRM) of their specific collision-induced ion transitions and quantified using peak areas.\nThe LC/MS/MS system was comprised of an Agility UPLC, a TQ MS, and controlled using MassLynx software (Waters Corporation, Milford, Mass., USA). Samples were separated on an Aquity BEH C18 column (1.7 μm, 2.1×50 mm) at 35° C. For operation in positive electrospray ionization mode, the mobile phase A was 0.1% (v/v) formic acid, and B was either acetonitrile or methanol with 0.1% (v/v) formic acid. For operation in negative electrospray ionization mode, the mobile phase A was 10 mM ammonium acetate, and B was methanol with 10 mM ammonium acetate, Injections of 5 μL were separated at a flow rate of 0.6 mL/min using a gradient from 5% to 95% B over two minutes followed by wash and re-equilibration steps.\nThe MS was operated with a desolvation temperature of 450° C. and a source temperature of 150° C. Desolvation and source nitrogen gas flows were 900 L/hr and 50 L/hr, respectively. Collision cell argon gas flow was 0.1 mL/min. Source and analyzer voltages were optimized for each compound using the MassLynx auto tune utility. Compound standards at 1000 ng/mL in 50% acetonitrile were infused at 30 μL/min and combined with flow from the UPLC at 0.6 mL/min and 50% B.\nStandard curves were generated from spiked brain homogenate and plasma prepared at 4, 40, 400 and 4000 ng/mL and extracted as above. Peak area was plotted versus concentration and a 1/x weighted linear regression curve was used to quantify the unknowns using the average peak area from triplicate injections,\nThe following experiments were designed to analyze TP receptor antagonists to determine their relative BBB penetration. The TP receptor antagonists were administered via i.p. injection at 5 mg/kg to normal mice, and brain and plasma compound concentrations were assessed by LC-MS/MS at 1 and 4 hours after dosing.\nTo examine the blood-brain barrier permeability of these compounds, one-month old B6C3F1 mice were injected at 5 mg/kg and sacrificed 1 hour after injection.",
  "key": {"[1]": {"details": "B/Pfree (unbound drug brain-to-plasma ratio)"}},
  "data": [
    {"smiles": "Cc1ccc2c(c1CCC(=O)O)CC[C@@H](NS(=O)(=O)c1ccc(Cl)cc1)C2", "note": "[Compound S18886]", "values": [
      {"measurement": "Kp at 1 h", "setting": "B/P (brain-to-plasma ratio)", "result": 0.02},
      {"measurement": "Kp at 4 h", "setting": "B/P (brain-to-plasma ratio)", "result": 0.05},
      {"measurement": "Kp at 1 h", "setting": "[1]", "result": 0.04},
      {"measurement": "Kp at 4 h", "setting": "[1]", "result": 0.08},
      {"measurement": "concentration at 1 h", "setting": "Brain", "result": 42.4, "unit": "ng/mL"},
      {"measurement": "concentration at 4 h", "setting": "Brain", "result": 9, "unit": "ng/mL"},
      {"measurement": "concentration at 1 h", "setting": "Plasma", "result": 1710, "unit": "ng/mL"},
      {"measurement": "concentration at 4 h", "setting": "Plasma", "result": 190, "unit": "ng/mL"}
    ]}
  ]
}
